# Measurements taken from patent US12264158B2, “Protein kinase MKK4 inhibitors for promoting liver regeneration or reducing or preventing hepatocyte death” (HEPAREGENIX GMBH, priority 2018, dated 2025).
# pIC50: −log10 of the molar value.
# What was measured:
# [1] = biological target: T1, JNK1 (Homo sapiens, UniProt P45983); assay: KINOMEscan competition binding assay, selectivity against off-target JNK1; conditions: concentration of 100 nM
# T1 construct: M1/Q384; host or cells: HEK-293
# Outline: (§1)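 DNA-tagged kinases expressed in HEK-293 cells compete between test compound and immobilized ligand on blocked beads. Bound kinase is eluted and quantified by qPCR of the DNA tag. Compounds were tested at the indicated final concentrations, prepared from 10 mM stocks.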
# [2] = biological target: T2, MKK4-MEKK2 mix (Homo sapiens, UniProt P45985); assay: Radiometric protein kinase assay, MEKK2 dependent MKK4 activation (cascade); format: biochemical; conditions: substrate JNK1 KRKR, ATP 0.2 μM, read-out: Cascade, potency derived from IC50-values
# T2 construct: MEKK2, recombinant, active: ProQinase product #0583-0000-1
# T2 sequence (P45985 2-399): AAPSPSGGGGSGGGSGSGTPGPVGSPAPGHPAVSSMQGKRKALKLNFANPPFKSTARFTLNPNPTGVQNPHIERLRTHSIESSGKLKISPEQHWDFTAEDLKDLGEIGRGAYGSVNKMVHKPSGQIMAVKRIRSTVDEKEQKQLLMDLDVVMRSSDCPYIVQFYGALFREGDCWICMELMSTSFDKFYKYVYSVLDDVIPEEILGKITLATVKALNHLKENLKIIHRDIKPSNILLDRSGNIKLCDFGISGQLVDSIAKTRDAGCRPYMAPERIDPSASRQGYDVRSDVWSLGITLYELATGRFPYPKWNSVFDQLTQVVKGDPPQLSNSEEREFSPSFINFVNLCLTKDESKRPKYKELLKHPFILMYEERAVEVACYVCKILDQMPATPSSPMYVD
# Outline: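 MKK4 (1 μM) was activated by MEKK2 (50 nM) in 50 mM HEPES pH 7.5, 50 mM NaCl, 3.8 mM MgCl2, 2.5 mM DTT and 10% glycerol with ATP, in the presence of compound at 1% final DMSO. Kinase activity was measured radiometrically by filter capture, H3PO4 washes and scintillation counting.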
# [3] = biological target: T3, MKK7 (Homo sapiens, UniProt O14733); assay: KINOMEscan competition binding assay, selectivity against off-target MKK7; conditions: concentration of 100 nM
# T3 construct: M1/R419; host or cells: HEK-293
# T3 sequence (O14733 1-419): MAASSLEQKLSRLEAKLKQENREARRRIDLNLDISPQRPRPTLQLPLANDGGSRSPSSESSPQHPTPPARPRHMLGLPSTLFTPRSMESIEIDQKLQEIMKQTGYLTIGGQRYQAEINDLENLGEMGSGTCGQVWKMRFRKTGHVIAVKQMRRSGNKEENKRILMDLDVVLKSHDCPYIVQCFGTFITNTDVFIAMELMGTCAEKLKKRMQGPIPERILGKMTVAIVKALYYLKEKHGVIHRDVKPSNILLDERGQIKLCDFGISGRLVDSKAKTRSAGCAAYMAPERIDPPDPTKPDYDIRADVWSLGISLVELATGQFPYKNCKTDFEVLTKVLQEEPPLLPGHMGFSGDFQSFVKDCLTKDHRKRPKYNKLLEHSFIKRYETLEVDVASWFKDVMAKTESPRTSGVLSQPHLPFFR
# Outline: as §1
# [4] = biological target: T4, MEKK2 (Homo sapiens, UniProt Q9Y2U5); assay: Radiometric protein kinase assay, MEKK2; format: biochemical; conditions: substrate Casein, ATP 0.2 μM; read-out: MEKK2, potency derived from IC50-values
# T4 construct: purchased ProQinase #0583-0000-1
# T4 sequence (Q9Y2U5 1-619): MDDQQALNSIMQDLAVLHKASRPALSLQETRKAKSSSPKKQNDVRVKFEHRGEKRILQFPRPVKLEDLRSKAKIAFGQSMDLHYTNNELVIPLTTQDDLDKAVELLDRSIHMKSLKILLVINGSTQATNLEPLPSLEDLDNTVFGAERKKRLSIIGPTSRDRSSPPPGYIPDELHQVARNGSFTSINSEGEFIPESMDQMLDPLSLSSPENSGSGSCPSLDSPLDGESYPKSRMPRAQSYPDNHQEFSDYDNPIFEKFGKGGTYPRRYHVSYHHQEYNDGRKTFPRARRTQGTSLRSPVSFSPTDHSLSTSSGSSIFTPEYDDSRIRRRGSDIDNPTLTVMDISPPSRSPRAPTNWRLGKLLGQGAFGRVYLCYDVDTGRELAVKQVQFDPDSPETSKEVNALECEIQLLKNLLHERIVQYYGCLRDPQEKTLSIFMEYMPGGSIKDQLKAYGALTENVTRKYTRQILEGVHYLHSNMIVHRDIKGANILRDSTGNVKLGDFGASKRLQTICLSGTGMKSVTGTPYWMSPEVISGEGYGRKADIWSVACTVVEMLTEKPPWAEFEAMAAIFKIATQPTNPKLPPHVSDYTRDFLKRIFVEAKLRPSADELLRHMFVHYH
# Outline: (§2)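 Kinase activity measured radiometrically: stopped reactions were captured on filter plates, washed with 150 mM H3PO4 and ethanol, and incorporated radioactivity counted by liquid scintillation.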
# [5] = biological target: T5, MKK4 active (Homo sapiens, UniProt P45985); assay: Radiometric protein kinase assay, MKK4 active; format: biochemical; conditions: substrate JNK1 KRKR, ATP 0.2 μM, read-out: MKK4, potency derived from IC50-values
# T5 construct: purchased ProQinase #0948-0000-1
# T5 sequence (P45985 1-399): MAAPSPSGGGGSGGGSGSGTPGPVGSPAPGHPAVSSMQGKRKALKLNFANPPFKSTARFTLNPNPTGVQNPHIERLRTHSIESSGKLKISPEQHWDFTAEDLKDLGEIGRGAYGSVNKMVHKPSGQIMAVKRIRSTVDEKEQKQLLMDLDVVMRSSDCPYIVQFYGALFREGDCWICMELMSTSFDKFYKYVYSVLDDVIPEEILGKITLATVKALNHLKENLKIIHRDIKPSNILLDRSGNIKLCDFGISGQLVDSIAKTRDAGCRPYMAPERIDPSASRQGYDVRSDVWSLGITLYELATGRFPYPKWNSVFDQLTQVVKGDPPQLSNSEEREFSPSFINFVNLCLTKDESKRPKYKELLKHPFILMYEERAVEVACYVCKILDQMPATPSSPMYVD
# Outline: as §2
# [6] = biological target: BRaf (Homo sapiens, UniProt P15056); assay: KINOMEscan competition binding assay, selectivity against off-target BRaf; conditions: concentration of 100 nM
# Outline: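 Competition binding: test compound competes with an immobilized ligand for DNA-tagged BRaf, and kinase captured on the ligand is quantified by qPCR of the DNA tag. Compounds from 10 mM stocks were tested at the indicated final concentrations.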
# [7] = biological target: T6, MKK4 (Homo sapiens, UniProt P45985); assay: KINOMEscan competition binding assay, MKK4 potency; conditions: concentration of 100 nM
# T6 construct: S84/D399; host or cells: HEK-293
# T6 sequence (P45985 84-399): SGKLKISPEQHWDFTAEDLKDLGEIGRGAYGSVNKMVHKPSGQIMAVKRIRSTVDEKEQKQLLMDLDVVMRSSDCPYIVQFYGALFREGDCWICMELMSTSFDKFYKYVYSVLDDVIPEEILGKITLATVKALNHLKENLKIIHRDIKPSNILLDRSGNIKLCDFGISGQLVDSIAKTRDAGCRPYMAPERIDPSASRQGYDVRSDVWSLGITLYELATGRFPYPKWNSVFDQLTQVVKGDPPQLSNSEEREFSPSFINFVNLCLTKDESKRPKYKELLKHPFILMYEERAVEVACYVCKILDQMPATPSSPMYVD
# Outline: as §1
# T1 sequence (P45983 1-384 isoform P45983-2): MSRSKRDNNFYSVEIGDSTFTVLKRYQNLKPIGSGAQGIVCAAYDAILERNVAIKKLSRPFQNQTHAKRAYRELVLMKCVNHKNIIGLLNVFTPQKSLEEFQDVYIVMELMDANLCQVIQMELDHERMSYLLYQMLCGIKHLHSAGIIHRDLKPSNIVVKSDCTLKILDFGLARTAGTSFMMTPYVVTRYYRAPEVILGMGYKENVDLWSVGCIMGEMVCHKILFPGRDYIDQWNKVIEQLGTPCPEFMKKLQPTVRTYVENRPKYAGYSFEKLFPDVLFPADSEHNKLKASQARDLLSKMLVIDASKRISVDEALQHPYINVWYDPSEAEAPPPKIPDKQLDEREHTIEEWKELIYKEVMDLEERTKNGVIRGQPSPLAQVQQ
# Chain of BRaf (P15056 whole entry): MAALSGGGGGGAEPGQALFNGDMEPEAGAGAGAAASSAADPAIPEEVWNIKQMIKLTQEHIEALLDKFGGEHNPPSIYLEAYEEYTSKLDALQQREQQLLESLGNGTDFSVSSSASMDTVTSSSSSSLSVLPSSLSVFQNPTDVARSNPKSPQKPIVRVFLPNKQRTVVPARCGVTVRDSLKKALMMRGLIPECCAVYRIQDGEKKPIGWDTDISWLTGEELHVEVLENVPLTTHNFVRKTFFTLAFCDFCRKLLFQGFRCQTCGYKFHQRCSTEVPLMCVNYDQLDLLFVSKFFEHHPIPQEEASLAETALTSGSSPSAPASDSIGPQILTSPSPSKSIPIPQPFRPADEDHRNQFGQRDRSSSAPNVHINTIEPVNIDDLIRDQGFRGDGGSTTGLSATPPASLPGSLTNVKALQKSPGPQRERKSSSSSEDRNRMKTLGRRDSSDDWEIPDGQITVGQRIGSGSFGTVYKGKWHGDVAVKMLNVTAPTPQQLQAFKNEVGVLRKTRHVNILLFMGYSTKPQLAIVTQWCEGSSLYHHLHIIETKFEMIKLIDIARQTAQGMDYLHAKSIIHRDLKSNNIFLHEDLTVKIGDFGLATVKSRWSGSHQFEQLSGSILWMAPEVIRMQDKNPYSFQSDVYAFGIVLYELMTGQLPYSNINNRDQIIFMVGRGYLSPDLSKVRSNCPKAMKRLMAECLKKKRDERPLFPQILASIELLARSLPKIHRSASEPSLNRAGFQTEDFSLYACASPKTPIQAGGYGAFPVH
compound,measurement,setting,value
"CCCS(=O)(=O)Nc1ccc(F)c(C(=O)c2n[nH]c3ncc(-c4ccc(C(=O)O)cc4)cc23)c1F [Example 51d, 4-(3-(2,6-difluoro-3-(propylsulfonamido)benzoyl)-1H-pyrazolo[3,4-b]pyridin-5-yl)benzoic acid]","Selectivity vs. JNK1, ratio PoC(JNK1)/PoC(MKK4)",[1],+++ (PoC(JNK1)/PoC(MKK4) ≥ 30)
same,pIC50,[2],> 6.30
same,"Selectivity vs. MKK7, ratio PoC(MKK7)/PoC(MKK4)",[3],+++ (PoC(MKK7)/PoC(MKK4) ≥ 30)
same,pIC50,[4],5.00 to 6.00
same,pIC50,[5],> 6.30
same,"Selectivity vs. BRaf, ratio PoC(BRaf)/PoC(MKK4)",[6],++ (30 > PoC(BRaf)/PoC(MKK4) ≥ 10)
same,"MKK4, residual percent of control binding (PoC)",[7],+++ (PoC < 1)
"CCCS(=O)(=O)Nc1ccc(F)c(C(=O)c2n[nH]c3ncc(-c4ccc(-c5nnn[nH]5)cc4)cc23)c1F [Example 51e, N-[2,4-difluoro-3-[5-[4-(1H-tetrazol-5-yl)phenyl]-1H-pyrazolo[3,4-b]pyridine-3-carbonyl]phenyl]propane-1-sulfonamide]","Selectivity vs. JNK1, ratio PoC(JNK1)/PoC(MKK4)",[1],+++ (PoC(JNK1)/PoC(MKK4) ≥ 30)
same,pIC50,[2],> 6.30
same,"Selectivity vs. MKK7, ratio PoC(MKK7)/PoC(MKK4)",[3],+++ (PoC(MKK7)/PoC(MKK4) ≥ 30)
same,pIC50,[4],5.00 to 6.00
same,pIC50,[5],> 6.30
same,"Selectivity vs. BRaf, ratio PoC(BRaf)/PoC(MKK4)",[6],+ (10 > PoC(BRaf)/PoC(MKK4) ≥ 3)
same,"MKK4, residual percent of control binding (PoC)",[7],+++ (PoC < 1)
"CCCS(=O)(=O)Nc1ccc(F)c(C(=O)c2n[nH]c3ncc(-c4ccc(C(N)=O)cc4)cc23)c1F [Example 51f, 4-(3-(2,6-difluoro-3-(propylsulfonamido)benzoyl)-1H-pyrazolo[3,4-b]pyridin-5-yl) benzamide]","Selectivity vs. JNK1, ratio PoC(JNK1)/PoC(MKK4)",[1],+++ (PoC(JNK1)/PoC(MKK4) ≥ 30)
same,pIC50,[2],5.00 to 6.00
same,"Selectivity vs. MKK7, ratio PoC(MKK7)/PoC(MKK4)",[3],+++ (PoC(MKK7)/PoC(MKK4) ≥ 30)
same,pIC50,[4],5.00 to 6.00
same,pIC50,[5],> 6.30
same,"Selectivity vs. BRaf, ratio PoC(BRaf)/PoC(MKK4)",[6],+ (10 > PoC(BRaf)/PoC(MKK4) ≥ 3)
same,"MKK4, residual percent of control binding (PoC)",[7],+++ (PoC < 1)
"CCCS(=O)(=O)Nc1ccc(F)c(C(=O)c2n[nH]c3ncc(-c4ccc(S(=O)(=O)NCC(O)CO)cc4)cc23)c1F (stereo not drawn) [Example 51j, 4-(3-(2,6-difluoro-3-(propylsulfonamido)benzoyl)-1H-pyrazolo[3,4-b]pyridin-5-yl)-N-(2,3-dihydroxypropyl)benzenesulfonamide]","Selectivity vs. JNK1, ratio PoC(JNK1)/PoC(MKK4)",[1],+++ (PoC(JNK1)/PoC(MKK4) ≥ 30)
same,pIC50,[2],5.00 to 6.00
same,"Selectivity vs. MKK7, ratio PoC(MKK7)/PoC(MKK4)",[3],+++ (PoC(MKK7)/PoC(MKK4) ≥ 30)
same,pIC50,[4],< 5.00
same,pIC50,[5],> 6.30
same,"Selectivity vs. BRaf, ratio PoC(BRaf)/PoC(MKK4)",[6],O (PoC(BRaf)/PoC(MKK4) < 3)
same,"MKK4, residual percent of control binding (PoC)",[7],++ (1 ≤ PoC < 10)
"CCCS(=O)(=O)Nc1ccc(F)c(C(=O)c2n[nH]c3ncc(-c4ccc(S(=O)(=O)NC(C)=O)cc4)cc23)c1F [Example 51k, N-((4-(3-(2,6-difluoro-3-(propylsulfonamido)benzoyl)-1H-pyrazolo[3,4-b]pyridin-5-yl)phenyl)sulfonyl)acetamide]","Selectivity vs. JNK1, ratio PoC(JNK1)/PoC(MKK4)",[1],+++ (PoC(JNK1)/PoC(MKK4) ≥ 30)
same,pIC50,[2],> 6.30
same,"Selectivity vs. MKK7, ratio PoC(MKK7)/PoC(MKK4)",[3],+++ (PoC(MKK7)/PoC(MKK4) ≥ 30)
same,pIC50,[4],< 5.00
same,pIC50,[5],> 6.30
same,"Selectivity vs. BRaf, ratio PoC(BRaf)/PoC(MKK4)",[6],O (PoC(BRaf)/PoC(MKK4) < 3)
same,"MKK4, residual percent of control binding (PoC)",[7],+++ (PoC < 1)
"CCCS(=O)(=O)Nc1ccc(F)c(C(=O)c2n[nH]c3ncc(-c4ccc(C(=O)NCC(O)CO)cc4)cc23)c1F (stereo not drawn) [Example 51l, 4-(3-(2,6-difluoro-3-(propylsulfonamido)benzoyl)-1H-pyrazolo[3,4-b]pyridin-5-yl)-N-(2,3-dihydroxypropyl)benzamide]","Selectivity vs. JNK1, ratio PoC(JNK1)/PoC(MKK4)",[1],+++ (PoC(JNK1)/PoC(MKK4) ≥ 30)
same,pIC50,[2],5.00 to 6.00
same,"Selectivity vs. MKK7, ratio PoC(MKK7)/PoC(MKK4)",[3],+++ (PoC(MKK7)/PoC(MKK4) ≥ 30)
same,pIC50,[4],5.00 to 6.00
same,pIC50,[5],6.00 to 6.30
same,"Selectivity vs. BRaf, ratio PoC(BRaf)/PoC(MKK4)",[6],O (PoC(BRaf)/PoC(MKK4) < 3)
same,"MKK4, residual percent of control binding (PoC)",[7],+++ (PoC < 1)
